CC50, IC50 and inhibition data for 13 compounds are collected here from patent US10160772B2, “5,6-dihydro-4H-benzo[b]thieno-[2,3-d]azepine derivatives” (PULMOCIDE LIMITED, priority 2014, dated 2018).

Molecules are shown by their SMILES. Read-outs that look alike come from different tables or passages of the source. Some results are limits rather than exact numbers.

Holding throughout (assay type): cell-based
Data set [1] in a line: Cell viability: resazurin assay in Hep2 cells. The note with it: human, 5 days incubation. The method, then: Cell Viability: Resazurin Assay Hep2 cells were seeded in 384-well plates (10^3/well/50 μL; BD Falcon Ref 353962) in FBS DMEM (5%, containing 2 mM L-glutamine and 1 mM sodium pyruvate) one day before experimentation. Serum-free DMEM (50 μL) was added to test wells while for control wells the media was removed and sterile water (100 μL) was added. Test compounds (0.5 μL DMSO solution) were added to give a final DMSO concentration of 0.5%. Hep2 cells were incubated with each test compound for 5 days (37° C./5% CO2 in 5% FBS) and then resazurin stock solution (5 μL; 0.03%) was added to each well and the plate incubated further for a further 6 hrs (37° C./5% CO2). The fluorescence of each well at 545 nm (excitation) and 590 nm (emission) was determined using a multi-scanner (Clariostar: BMG Labtech). The percentage loss of cell viability was calculated for each well relative to vehicle (0.5% DMSO) treatment. Where appropriate, a CC50 value was calculated from the concentration-response curve generated from the concentration-response curve for each test compound.

Data set [2] deals with RSV A2 strain. The data set is described as follows: RSV A2-induced CPE in Hep2 cells. The note with it: human respiratory syncytial virus; for IC50: HEp-2, 120 h, read-out: RSV A2 CPE IC50. The method, then:
(§1) Biological Testing: Experimental Methods Assessment of RSV Induced CPE in Hep2 Cells
(§2) Hep2 cells were seeded (10^3/well/50 μL) in 384-well plates (Catalogue number 353962, BD Falcon, Oxford, UK) in 5% serum free-DMEM containing 2 mM L-glutamine and 1 mM sodium pyruvate one day before infection. RSV A2 strain (#0709161v, NCPV, Public Health England, Wiltshire) or RSV B Washington strain (VR-1580, ATCC, Manassas, Va. 20108) virus solutions were prepared in serum free-DMEM with 2 mM L-glutamine and 1 mM sodium pyruvate, and then added (50 μL/well) to achieve a final virus concentration of 1 MOI for RSV A and 0.1MOI for RSV B. Simultaneously test compounds (0.5 μL DMSO solution) were added to 100 μL of Hep2 cell culture with virus solution to provide a final DMSO solution of 0.5%. Plates were incubated (37° C./5% CO2) for 5 days for studies using RSV A2 strain or 6 days for those using RSV B strain, and then resazurin sodium salt (5 μL of 0.03% solution; Sigma-Aldrich, Dorset, UK) was added to each well and the plate incubated for a further 6 hr (37° C. and 5% CO2). The fluorescence of each well [545 nm (excitation)/590 nm (emission)] was determined using a multi-scanner (Clariostar: BMG, Buckinghamshire, UK). The percentage inhibition for each well was calculated and the IC50, IC75 and IC90 values were calculated from the concentration-response curve generated for each test compound.

The test system of data set [3] is RSV B Washington strain. The data set is described as follows: RSV B-induced CPE in Hep2 cells. The note with it: human respiratory syncytial virus; for IC50: HEp-2, 144 h, read-out: RSV B CPE IC50. The method, then:
as §1, §2

The mark [4] stands for this setting: Hep2 cells, RSV A2 1 MOI, 5 days, resazurin.
The mark [5] stands for this setting: HEp-2, Hep2 cells, at 0.1 μg/mL, read-out: RSV A2 CPE % Inhibition.
Setting [6] is: Hep2 cells, RSV B Washington 0.1 MOI, 6 days, resazurin.
[7] abbreviates: HEp-2, Hep2 cells, at 1 μg/mL, read-out: RSV B CPE % Inhibition.

As for `Cc1ccc2nc(-c3cc4c(s3)-c3ccccc3N(C(=O)c3ccc(NC(=O)c5cccnc5N5CC6(CCOCC6)C5)cc3)CC4)[nH]c2c1` [Example 11, N-(4-(2-(6-methyl-1H-benzo[d]imidazol-2-yl)-5,6-dihydro-4H-benzo[b]thieno[2,3-d]azepine-6-carbonyl)phenyl)-2-(7-oxa-2-azaspiro[3.5]nonan-2-yl)nicotinamide], the CC50 at 5 days in data set [1] was above 14700 nM. In addition, the IC50 in data set [2] (setting [4]) was 0.28 nM; in data set [3] (setting [6]) it was 45.7 nM. In addition, the inhibition at 0.1 µg/mL in data set [2] (setting [5]) turned out to be 100%. In addition, in data set [3] (setting [7]), the inhibition at 1 µg/mL was found to be 100%.

Consider `Cc1cccc2nc(-c3cc4c(s3)-c3ccccc3N(C(=O)c3ccc(NC(=O)c5cccnc5N5CC6(CCOCC6)C5)cc3)CC4)[nH]c12` [Example 1, N-(4-(2-(7-Methyl-1H-benzo[d]imidazol-2-yl)-5,6-dihydro-4H-benzo[b]thieno[2,3-d]azepine-6-carbonyl)phenyl)-2-(7-oxa-2-azaspiro[3.5]nonan-2-yl)nicotinamide], for which, in data set [1], the CC50 at 5 days is above 14700 nM. Also, the IC50 in data set [2] worked out at 0.21 nM; in data set [3], 84.7 nM. For the same compound, the inhibition at 0.1 µg/mL in data set [2] (HEp-2, read-out: RSV A2 CPE % Inhibition) turned out to be 100%. The inhibition at 1 µg/mL in data set [3] (HEp-2, read-out: RSV B CPE % Inhibition) is 100%.

Consider `Cc1cnc(N2CC3(CCOCC3)C2)c(C(=O)Nc2ccc(C(=O)N3CCc4cc(-c5nc6cccc(C(F)(F)F)c6[nH]5)sc4-c4ccccc43)cc2)c1` [Example 17, 5-methyl-2-(7-oxa-2-azaspiro[3.5]nonan-2-yl)-N-(4-(2-(7-(trifluoromethyl)-1H-benzo[d]imidazol-2-yl)-5,6-dihydro-4H-benzo[b]thieno[2,3-d]azepine-6-carbonyl)phenyl)nicotinamide], for which the cytotoxic concentration (CC50) at 5 days in data set [1] was above 13400 nM. In addition, the IC50 in data set [2] (setting [4]) worked out at 0.11 nM; in data set [3] (setting [6]) it was 13.2 nM. For the same compound, the inhibition at 0.1 µg/mL in data set [2] (setting [5]) came out at 100%. In data set [3] (setting [7]), the inhibition at 1 µg/mL is 100%.

For the compound `O=C(Nc1ccc(C(=O)N2CCc3cc(-c4nc5cccc(C(F)(F)F)c5[nH]4)sc3-c3ccccc32)cc1)c1cccnc1N1CC2(CCOCC2)C1` [Example 10, 2-(7-oxa-2-azaspiro[3.5]nonan-2-yl)-N-(4-(2-(7-(trifluoromethyl)-1H-benzo[d]imidazol-2-yl)-5,6-dihydro-4H-benzo[b]thieno[2,3-d]azepine-6-carbonyl)phenyl)nicotinamide], the CC50 at 5 days in data set [1] is above 13600 nM. Besides, the IC50 in data set [2] (setting [4]) stood at 0.14 nM; in data set [3] (setting [6]), 62 nM. Moreover, the inhibition at 0.1 µg/mL in data set [2] (setting [5]) amounted to 100%. In data set [3] (setting [7]), the inhibition at 1 µg/mL turned out to be 100%.

The compound `O=C(Nc1ccc(C(=O)N2CCc3cc(-c4nc5cccc(Cl)c5[nH]4)sc3-c3ccccc32)cc1)c1cccnc1N1CC2(CCOCC2)C1` [Example 9, N-(4-(2-(7-chloro-1H-benzo[d]imidazol-2-yl)-5,6-dihydro-4H-benzo[b]thieno[2,3-d]azepine-6-carbonyl)phenyl)-2-(7-oxa-2-azaspiro[3.5]nonan-2-yl)nicotinamide] returned a CC50 at 5 days in data set [1] above 14300 nM. Besides, the figures for the IC50 in data set [2] (setting [4]) and in data set [3] (setting [6]) were 0.67 nM and 44.1 nM, respectively. In addition, the inhibition at 0.1 µg/mL in data set [2] (setting [5]) was found to be 100%. In addition, the inhibition at 1 µg/mL in data set [3] (setting [7]) came to 100%.

With `Cc1cnc(N2CC3(CCOCC3)C2)c(C(=O)Nc2ccc(C(=O)N3CCc4cc(-c5nc6cccc(Cl)c6[nH]5)sc4-c4ccccc43)cc2)c1` [Example 15, N-(4-(2-(7-chloro-1H-benzo[d]imidazol-2-yl)-5,6-dihydro-4H-benzo[b]thieno[2,3-d]azepine-6-carbonyl)phenyl)-5-methyl-2-(7-oxa-2-azaspiro[3.5]nonan-2-yl)nicotinamide], the CC50 at 5 days in data set [1] is above 14000 nM. Further, the IC50 in data set [2] (setting [4]) is 0.17 nM; in data set [3] (setting [6]), 83.3 nM. Besides, the inhibition at 0.1 µg/mL in data set [2] (setting [5]) is 85%. In addition, the inhibition at 1 µg/mL in data set [3] (setting [7]) is 100%.

For `Cc1cc(C(=O)Nc2ccc(C(=O)N3CCc4cc(-c5nc6cccc(Cl)c6[nH]5)sc4-c4ccccc43)cc2)c(N2CC3(CCOCC3)C2)nc1C` [Example 23, N-(4-(2-(7-chloro-1H-benzo[d]imidazol-2-yl)-5,6-dihydro-4H-benzo[b]thieno[2,3-d]azepine-6-carbonyl)phenyl)-5,6-dimethyl-2-(7-oxa-2-azaspiro[3.5]nonan-2-yl)nicotinamide], the cytotoxic concentration (CC50) at 5 days in data set [1] was above 13700 nM. For the same compound, the IC50 amounted to 0.75 nM in data set [2] (setting [4]) and 103 nM in data set [3] (setting [6]). Also, the inhibition at 0.1 µg/mL in data set [2] (setting [5]) came to 100%. In addition, the inhibition at 1 µg/mL in data set [3] (setting [7]) was found to be 100%.

Compound `Cc1cnc(N2CC3(CCOCC3)C2)c(C(=O)Nc2ccc(C(=O)N3CCc4cc(-c5nc6cccc(C)c6[nH]5)sc4-c4ccccc43)c(F)c2)c1` [Example 27, N-(3-fluoro-4-(2-(7-methyl-1H-benzo[d]imidazol-2-yl)-5,6-dihydro-4H-benzo[b]thieno[2,3-d]azepine-6-carbonyl)phenyl)-5-methyl-2-(7-oxa-2-azaspiro[3.5]nonan-2-yl)nicotinamide] displayed a CC50 at 5 days in data set [1] above 14000 nM. In addition, the IC50 in data set [2] (setting [4]) came to 0.29 nM; in data set [3] (setting [6]) it was 15 nM. In data set [2] (setting [5]), the inhibition at 0.1 µg/mL worked out at 90%. Moreover, in data set [3] (setting [7]), the inhibition at 1 µg/mL worked out at 80%.

As for `Cc1ccc(C(=O)Nc2ccc(C(=O)N3CCc4cc(-c5nc6cccc(F)c6[nH]5)sc4-c4ccccc43)cc2)c(N2CC3(CCOCC3)C2)n1` [Example 20, N-(4-(2-(7-fluoro-1H-benzo[d]imidazol-2-yl)-5,6-dihydro-4H-benzo[b]thieno[2,3-d]azepine-6-carbonyl)phenyl)-6-methyl-2-(7-oxa-2-azaspiro[3.5]nonan-2-yl)nicotinamide], the CC50 at 5 days in data set [1] was above 14300 nM. For the same compound, the IC50 in data set [2] (setting [4]) was 0.094 nM; in data set [3] (setting [6]), 7.6 nM. In data set [2] (setting [5]), the inhibition at 0.1 µg/mL was 100%. Besides, in data set [3] (setting [7]), the inhibition at 1 µg/mL came out at 100%.

`Cc1cnc(N2CC3(CCOCC3)C2)c(C(=O)Nc2ccc(C(=O)N3CCc4cc(-c5nc6ccccc6[nH]5)sc4-c4ccccc43)cc2)c1` [Example 13, N-(4-(2-(1H-benzo[d]imidazol-2-yl)-5,6-dihydro-4H-benzo[b]thieno[2,3-d]azepine-6-carbonyl)phenyl)-5-methyl-2-(7-oxa-2-azaspiro[3.5]nonan-2-yl)nicotinamide] gave a CC50 at 5 days in data set [1] above 14700 nM. The IC50 worked out at 0.085 nM in data set [2] (setting [4]) and 0.99 nM in data set [3] (setting [6]). In addition, in data set [2] (setting [5]), the inhibition at 0.1 µg/mL was 100%. Besides, the inhibition at 1 µg/mL in data set [3] (setting [7]) is 100%.

`COc1ccc(C(=O)Nc2ccc(C(=O)N3CCc4cc(-c5nc6ccccc6[nH]5)sc4-c4ccccc43)cc2)c(N2CC3(CCOCC3)C2)n1` [Example 21, N-(4-(2-(1H-benzo[d]imidazol-2-yl)-5,6-dihydro-4H-benzo[b]thieno[2,3-d]azepine-6-carbonyl)phenyl)-6-methoxy-2-(7-oxa-2-azaspiro[3.5]nonan-2-yl)nicotinamide] yielded a CC50 at 5 days in data set [1] above 14400 nM. Also, the IC50 is 0.21 nM in data set [2] (setting [4]) and 45.2 nM in data set [3] (setting [6]). Moreover, in data set [2] (setting [5]), the inhibition at 0.1 µg/mL was found to be 100%. Also, in data set [3] (setting [7]), the inhibition at 1 µg/mL is 100%.

In data set [1], `CCc1cnc(N2CC3(CCOCC3)C2)c(C(=O)Nc2ccc(C(=O)N3CCc4cc(-c5nc6ccccc6[nH]5)sc4-c4ccccc43)cc2)c1` [Example 4, N-(4-(2-(1H-Benzo[d]imidazol-2-yl)-5,6-dihydro-4H-benzo[b]thieno[2,3-d]azepine-6-carbonyl)phenyl)-5-ethyl-2-(7-oxa-2-azaspiro[3,5]nonan-2-yl)nicotinamide] yielded a CC50 at 5 days above 14400 nM. The values for the IC50 in data set [2] (setting [4]) and in data set [3] (setting [6]) were 0.66 nM and 13.3 nM, respectively. The inhibition at 0.01 µg/mL in data set [2] (HEp-2, Hep2 cells, at 0.01 μg/mL (footnote 2), read-out: RSV A2 CPE % Inhibition) amounted to 86%. For the same compound, in data set [3] (setting [7]), the inhibition at 1 µg/mL is 100%.

Turning to `Cc1cc(C(=O)Nc2ccc(C(=O)N3CCc4cc(-c5nc6cccc(C)c6[nH]5)sc4-c4ccccc43)cc2)c(N2CC3(CCOCC3)C2)nc1C` [Example 24], in data set [1], the CC50 at 5 days was above 14100 nM. Moreover, the figures for the IC50 in data set [2] (setting [4]) and in data set [3] (setting [6]) were 0.85 nM and 27.3 nM, respectively. For the same compound, the inhibition at 0.1 µg/mL in data set [2] (setting [5]) worked out at 100%. In data set [3] (setting [7]), the inhibition at 1 µg/mL came to 100%.

By CC50 is commonly meant the concentration at which the toxic effect on the cells reaches its halfway point. Read a high CC50 as lower toxicity to the cells. A word on the IC50: it is the concentration that gives 50% inhibition. As a reminder, the inhibition is the change of the read-out against control, counted positive when it falls.
